In patent US20260070945A1, “MACROCYCLIC IMMUNOMODULATORS” (Bristol-Myers Squibb Company, priority 2022, published 2026) one finds IC50 data, which are given here for twelve molecules.

Where a SMILES comes first, the peptide text is derived from it. Bridges are numbered along the chain shown (N, C = ends). [ ]: non-standard residue; d: D form. The star is where a group is joined. Phe(4-COOH) = N[C@@H](Cc1ccc(C(=O)O)cc1)C(=O)O; Bip = N[C@@H](Cc1ccc(-c2ccccc2)cc1)C(=O)O; hhGln = NC(=O)CCCC[C@H](N)C(=O)O; Cha = N[C@@H](CC1CCCCC1)C(=O)O; Cit = NC(=O)NCCC[C@H](N)C(=O)O; 12Ado = NCCCCCCCCCCCC(=O)O; Carboxymethyl = O=C(O)C*; NMeA = CN[C@@H](C)C(=O)O; Orn = NCCC[C@H](N)C(=O)O; Aun = NCCCCCCCCCCC(=O)O; Dab = NCC[C@H](N)C(=O)O; Dap = NC[C@H](N)C(=O)O; AEEA = NCCOCCOCC(=O)O

T1 sequence (Q15116 25-288): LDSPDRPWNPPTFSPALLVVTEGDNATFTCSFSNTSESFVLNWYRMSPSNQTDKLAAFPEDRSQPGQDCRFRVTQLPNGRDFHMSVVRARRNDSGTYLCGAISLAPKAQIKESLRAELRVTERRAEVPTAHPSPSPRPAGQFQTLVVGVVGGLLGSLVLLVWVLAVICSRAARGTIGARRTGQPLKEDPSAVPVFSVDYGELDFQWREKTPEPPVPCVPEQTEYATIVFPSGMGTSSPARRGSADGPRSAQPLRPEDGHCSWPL

This assay has as its target T1, PD-1/PD-L1 interaction (PE-labeled human PD-L1-Ig binding to Jurkat cell line over-expressing human PD-1) (Homo sapiens, UniProt Q15116).
T1 construct: expressed in transfected cells; host or cells: Jurkat
Description: Jurkat-PD-1 Cell Binding High-Content Screening Assay (CBA). Particulars: Jurkat-hPD-1 cells, PE-labeled PD-L1-Ig 20 nM final; read-out: Jurkat HPD1 PDL1 IC50. The gist of the method: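 Jurkat-hPD-1 cells (8×10^3/well) in DMEM with 10% fetal calf serum were preincubated with compound for 2 h at 37 °C. PE-labeled PD-L1-Ig was then added at 20 nM final for 1 h. Cells were fixed in paraformaldehyde with Hoechst 33342, washed and imaged by high-content imaging.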
As usually defined, the IC50 is the concentration needed to halve the response being measured. Take `CC(C)C[C@@H]1NC(=O)[C@H](Cc2c[nH]c3ccccc23)NC(=O)[C@H](CC(=O)O)NC(=O)[C@H](Cc2ccc(C(=O)O)cc2)NC(=O)[C@H](Cc2ccc(OCC(=O)O)cc2)NC(=O)CSC[C@@H](C(=O)N[C@@H](CCCN)C(=O)NCCOCCOCC(=O)NCCCCCCCCCCC(=O)O)NC(=O)[C@H](CC(=O)O)NC(=O)[C@H](C(C)C)NC(=O)[C@H](CC2CCCCC2)NC(=O)[C@H](CCN)NC(=O)[C@@H](CC(C)C)NC(=O)[C@H](C)N(C)C(=O)[C@H](C(C)C)NC(=O)[C@H](Cc2ccc(-c3ccccc3)cc2)NC1=O` [Example 2125] ({CH2CO}-Y(Carboxymethyl)[Phe(4-COOH)]DWL[Bip]V[NMeA][dL][Dab][Cha]VDC[Orn][AEEA][Aun]-OH; thioether N-14): the IC50 is 11.5 nM.

Regarding `CC(C)C[C@@H]1NC(=O)[C@H](Cc2c[nH]c3ccccc23)NC(=O)[C@H](CC(=O)O)NC(=O)[C@H](Cc2ccc(C(=O)O)cc2)NC(=O)[C@H](Cc2ccc(OCC(=O)O)cc2)NC(=O)CSC[C@@H](C(=O)N[C@@H](CCCN)C(=O)NCCOCCOCC(=O)NCCCCCCCCCCC(=O)O)NC(=O)[C@H](CCC(=O)O)NC(=O)[C@H](C(C)C)NC(=O)[C@H](CC2CCCCC2)NC(=O)[C@H](CCN)NC(=O)[C@@H](CC(C)C)NC(=O)[C@H](C)N(C)C(=O)[C@H](C(C)C)NC(=O)[C@H](Cc2ccc(-c3ccccc3)cc2)NC1=O` [Example 2126] ({CH2CO}-Y(Carboxymethyl)[Phe(4-COOH)]DWL[Bip]V[NMeA][dL][Dab][Cha]VEC[Orn][AEEA][Aun]-OH; thioether N-14), the IC50 turned out to be 8.4 nM.

Take `CC(C)C[C@@H]1NC(=O)[C@H](Cc2c[nH]c3ccccc23)NC(=O)[C@H](CC(=O)O)NC(=O)[C@H](Cc2ccc(C(=O)O)cc2)NC(=O)[C@H](Cc2ccc(OCC(=O)O)cc2)NC(=O)CSC[C@@H](C(=O)N[C@@H](CCN)C(=O)NCCOCCOCC(=O)NCCCCCCCCCCC(=O)O)NC(=O)[C@H](CCCNC(N)=O)NC(=O)[C@H](C(C)C)NC(=O)[C@H](CC2CCCCC2)NC(=O)[C@H](CCN)NC(=O)[C@@H](CC(C)C)NC(=O)[C@H](C)N(C)C(=O)[C@H](C(C)C)NC(=O)[C@H](Cc2ccc(-c3ccccc3)cc2)NC1=O` [Example 2127] ({CH2CO}-Y(Carboxymethyl)[Phe(4-COOH)]DWL[Bip]V[NMeA][dL][Dab][Cha]V[Cit]C[Dab][AEEA][Aun]-OH; thioether N-14): the IC50 was determined as 10.4 nM.

Take `CC(C)C[C@@H]1NC(=O)[C@H](Cc2c[nH]c3ccccc23)NC(=O)[C@H](CC(=O)O)NC(=O)[C@H](Cc2ccc(C(=O)O)cc2)NC(=O)[C@H](Cc2ccc(OCC(=O)O)cc2)NC(=O)CSC[C@@H](C(=O)N[C@@H](CCCN)C(=O)NCCOCCOCC(=O)NCCCCCCCCCCC(=O)O)NC(=O)[C@H](CCCCC(N)=O)NC(=O)[C@H](C(C)C)NC(=O)[C@H](CC2CCCCC2)NC(=O)[C@H](CCN)NC(=O)[C@@H](CC(C)C)NC(=O)[C@H](C)N(C)C(=O)[C@H](C(C)C)NC(=O)[C@H](Cc2ccc(-c3ccccc3)cc2)NC1=O` [Example 2128] ({CH2CO}-Y(Carboxymethyl)[Phe(4-COOH)]DWL[Bip]V[NMeA][dL][Dab][Cha]V[hhGln]C[Orn][AEEA][Aun]-OH; thioether N-14): the IC50 was found to be 8.9 nM.

For `CC(C)C[C@@H]1NC(=O)[C@H](Cc2c[nH]c3ccccc23)NC(=O)[C@H](CC(=O)O)NC(=O)[C@H](Cc2ccc(OCC(=O)O)cc2)NC(=O)[C@H](Cc2ccc(OCC(=O)O)cc2)NC(=O)CSC[C@@H](C(=O)N[C@@H](CCCN)C(=O)NCCOCCOCC(=O)NCCCCCCCCCCC(=O)O)NC(=O)[C@H](CCCCC(N)=O)NC(=O)[C@H](C(C)C)NC(=O)[C@H](CC2CCCCC2)NC(=O)[C@H](CCN)NC(=O)[C@@H](CC(C)C)NC(=O)[C@H](C)N(C)C(=O)[C@H](C(C)C)NC(=O)[C@H](Cc2ccc(-c3ccccc3)cc2)NC1=O` [Example 2129] ({CH2CO}-Y(Carboxymethyl)Y(Carboxymethyl)DWL[Bip]V[NMeA][dL][Dab][Cha]V[hhGln]C[Orn][AEEA][Aun]-OH; thioether N-14), the IC50 is 11.2 nM.

Consider `CC(C)C[C@@H]1NC(=O)[C@H](Cc2c[nH]c3ccccc23)NC(=O)[C@H](CC(=O)O)NC(=O)[C@H](Cc2ccc(OCC(=O)O)cc2)NC(=O)[C@H](Cc2ccc(OCC(=O)O)cc2)NC(=O)CSC[C@@H](C(=O)N[C@@H](CCCN)C(=O)NCCOCCOCC(=O)NCCCCCCCCCCC(=O)O)NC(=O)[C@H](CO)NC(=O)[C@H](C(C)C)NC(=O)[C@H](CC2CCCCC2)NC(=O)[C@H](CCN)NC(=O)[C@@H](CC(C)C)NC(=O)[C@H](C)N(C)C(=O)[C@H](C(C)C)NC(=O)[C@H](Cc2ccc(-c3ccccc3)cc2)NC1=O` [Example 2130] ({CH2CO}-Y(Carboxymethyl)Y(Carboxymethyl)DWL[Bip]V[NMeA][dL][Dab][Cha]VSC[Orn][AEEA][Aun]-OH; thioether N-14), for which the IC50 stood at 11.8 nM.

In the case of `CC(C)C[C@@H]1NC(=O)[C@H](Cc2c[nH]c3ccccc23)NC(=O)[C@H](CC(=O)O)NC(=O)[C@H](Cc2ccc(C(=O)O)cc2)NC(=O)[C@H](Cc2ccc(OCC(=O)O)cc2)NC(=O)CSC[C@@H](C(=O)N[C@@H](CCCN)C(=O)NCCOCCOCC(=O)NCCCCCCCCCCCC(=O)O)NC(=O)[C@H](CO)NC(=O)[C@H](C(C)C)NC(=O)[C@H](CC2CCCCC2)NC(=O)[C@H](CCN)NC(=O)[C@@H](CC(C)C)NC(=O)[C@H](C)N(C)C(=O)[C@H](C(C)C)NC(=O)[C@H](Cc2ccc(-c3ccccc3)cc2)NC1=O` [Example 2131] ({CH2CO}-Y(Carboxymethyl)[Phe(4-COOH)]DWL[Bip]V[NMeA][dL][Dab][Cha]VSC[Orn][AEEA][12Ado]-OH; thioether N-14), the IC50 worked out at 19.1 nM.

Take `CC(C)C[C@@H]1NC(=O)[C@H](Cc2c[nH]c3ccccc23)NC(=O)[C@H](CC(=O)O)NC(=O)[C@H](Cc2ccc(C(=O)O)cc2)NC(=O)[C@H](Cc2ccc(OCC(=O)O)cc2)NC(=O)CSC[C@@H](C(=O)N[C@@H](CN)C(=O)NCCOCCOCC(=O)NCCCCCCCCCCC(=O)O)NC(=O)[C@H](CCCNC(N)=O)NC(=O)[C@H](C(C)C)NC(=O)[C@H](CC2CCCCC2)NC(=O)[C@H](CCN)NC(=O)[C@@H](CC(C)C)NC(=O)[C@H](C)N(C)C(=O)[C@H](C(C)C)NC(=O)[C@H](Cc2ccc(-c3ccccc3)cc2)NC1=O` [Example 2132] ({CH2CO}-Y(Carboxymethyl)[Phe(4-COOH)]DWL[Bip]V[NMeA][dL][Dab][Cha]V[Cit]C[Dap][AEEA][Aun]-OH; thioether N-14): the IC50 was determined as 8.2 nM.

For the molecule `CC(C)C[C@@H]1NC(=O)[C@H](Cc2c[nH]c3ccccc23)NC(=O)[C@H](CC(=O)O)NC(=O)[C@H](Cc2ccc(C(=O)O)cc2)NC(=O)[C@H](Cc2ccc(OCC(=O)O)cc2)NC(=O)CSC[C@@H](C(=O)N[C@@H](CCCN)C(=O)NCCOCCOCC(=O)NCCCCCCCCCCC(=O)O)NC(=O)[C@H](CO)NC(=O)[C@H](C(C)C)NC(=O)[C@H](CC2CCCCC2)NC(=O)[C@H](CCCCN)NC(=O)[C@@H](CC(C)C)NC(=O)[C@H](C)N(C)C(=O)[C@H](C(C)C)NC(=O)[C@H](Cc2ccc(-c3ccccc3)cc2)NC1=O` [Example 2133] ({CH2CO}-Y(Carboxymethyl)[Phe(4-COOH)]DWL[Bip]V[NMeA][dL]K[Cha]VSC[Orn][AEEA][Aun]-OH; thioether N-14), the IC50 came to 23.4 nM.

`CC(C)C[C@@H]1NC(=O)[C@H](Cc2c[nH]c3ccccc23)NC(=O)[C@H](CC(=O)O)NC(=O)[C@H](Cc2ccc(C(=O)O)cc2)NC(=O)[C@H](Cc2ccc(OCC(=O)O)cc2)NC(=O)CSC[C@@H](C(=O)N[C@@H](CCCN)C(=O)NCCOCCOCC(=O)NCCCCCCCCCCC(=O)O)NC(=O)[C@H](CN)NC(=O)[C@H](C(C)C)NC(=O)[C@H](CC2CCCCC2)NC(=O)[C@H](CCN)NC(=O)[C@@H](CC(C)C)NC(=O)[C@H](C)N(C)C(=O)[C@H](C(C)C)NC(=O)[C@H](Cc2ccc(-c3ccccc3)cc2)NC1=O` [Example 2134] ({CH2CO}-Y(Carboxymethyl)[Phe(4-COOH)]DWL[Bip]V[NMeA][dL][Dab][Cha]V[Dap]C[Orn][AEEA][Aun]-OH; thioether N-14): the IC50 was 32 nM.

For `CC(C)C[C@@H]1NC(=O)[C@H](Cc2c[nH]c3ccccc23)NC(=O)[C@H](CC(=O)O)NC(=O)[C@H](Cc2ccc(C(=O)O)cc2)NC(=O)[C@H](Cc2ccc(OCC(=O)O)cc2)NC(=O)CSC[C@@H](C(=O)N[C@@H](CCCN)C(=O)NCCOCCOCC(=O)NCCCCCCCCCCC(=O)O)NC(=O)[C@H](CCCN)NC(=O)[C@H](C(C)C)NC(=O)[C@H](CC2CCCCC2)NC(=O)[C@H](CCN)NC(=O)[C@@H](CC(C)C)NC(=O)[C@H](C)N(C)C(=O)[C@H](C(C)C)NC(=O)[C@H](Cc2ccc(-c3ccccc3)cc2)NC1=O` [Example 2135] ({CH2CO}-Y(Carboxymethyl)[Phe(4-COOH)]DWL[Bip]V[NMeA][dL][Dab][Cha]V[Orn]C[Orn][AEEA][Aun]-OH; thioether N-14), the IC50 was 13.2 nM.

Consider `CC(C)C[C@@H]1NC(=O)[C@H](Cc2c[nH]c3ccccc23)NC(=O)[C@H](CC(=O)O)NC(=O)[C@H](Cc2ccc(C(=O)O)cc2)NC(=O)[C@H](Cc2ccc(OCC(=O)O)cc2)NC(=O)CSC[C@@H](C(=O)N[C@@H](CCCN)C(=O)NCCOCCOCC(=O)NCCCCCCCCCCC(=O)O)NC(=O)[C@H](CCCCN)NC(=O)[C@H](C(C)C)NC(=O)[C@H](CC2CCCCC2)NC(=O)[C@H](CC(=O)O)NC(=O)[C@@H](CC(C)C)NC(=O)[C@H](C)N(C)C(=O)[C@H](C(C)C)NC(=O)[C@H](Cc2ccc(-c3ccccc3)cc2)NC1=O` [Example 2136] ({CH2CO}-Y(Carboxymethyl)[Phe(4-COOH)]DWL[Bip]V[NMeA][dL]D[Cha]VKC[Orn][AEEA][Aun]-OH; thioether N-14), for which the IC50 stood at 143 nM.
